For this test, the system named is HBV. The test can be described thus: HBV-DNA antiviral assay using HepG2.117 cells (intracellular HBV DNA by qPCR). Type of test: cell-based, HBV genotype D. Particulars: HBV DNA inhibition, 3 days incubation, read-out: EC50. In short, it runs like this: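 Read-outs: cell-lysate HBV DNA copies by qPCR (interpolated from gBlock standard) and parallel cellular ATP luminescence for CC50, both normalised to 2% DMSO controls and fitted by non-linear regression. HepG2.117 Tet-off genotype D HBV cells, induced by doxycycline removal, exposed 3 days to 4-fold serial dilutions.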

[1] abbreviates: Hepatitis B virus, HepG2.117, 72 h.

This passage reports EC50 results from patent US11845752B2, “Substituted imidazo[1,5-a]pyrazines for the treatment of hepatitis B” (ALIGOS THERAPEUTICS, INC., priority 2020, dated 2023).

Like-named read-outs stand apart in the source and are kept apart here.

Consider `CC1Cn2c(c(C(=O)NCc3ccccc3-c3ccnc(N)n3)n(-c3ccc(OC4CC4)cc3)c2=O)CN1C(=O)c1ccc(Br)c(Cl)c1` (single isomer, unassigned) [Compound 11a, N-[[2-(2-aminopyrimidin-4-yl)phenyl]methyl]-7-(4-bromo-3-chloro-benzoyl)-2-[4-(cyclopropoxy)phenyl]-6-methyl-3-oxo-6,8-dihydro-5H-imidazo[1,5-a]pyrazine-1-carboxamide], for which, under setting [1], the EC50 is under 50 nM.

Consider `CC1Cn2c(c(C(=O)NCc3ccccc3-c3ccnc(N)n3)n(-c3ccc(OC4CC4)cc3)c2=O)CN1C(=O)c1ccc(Br)c(Cl)c1` (single isomer, unassigned) [Compound 11b, N-[[2-(2-aminopyrimidin-4-yl)phenyl]methyl]-7-(4-bromo-3-chloro-benzoyl)-2-[4-(cyclopropoxy)phenyl]-6-methyl-3-oxo-6,8-dihydro-5H-imidazo[1,5-a]pyrazine-1-carboxamide], for which the EC50 was 50 to 500 nM.

`Cc1cc(C(=O)N2Cc3c(C(=O)NCc4ccccc4-c4ccncn4)n(-c4ccc(OC5CC5)cc4)c(=O)n3CC2C)ccc1Br` (single isomer, unassigned) [Compound 12a, 7-(4-bromo-3-methyl-benzoyl)-2-[4-(cyclopropoxy)phenyl]-6-methyl-3-oxo-N-[(2-pyrimidin-4-ylphenyl)methyl]-6,8-dihydro-5H-imidazo[1,5-a]pyrazine-1-carboxamide]: the EC50 under setting [1] was in the range of 50 to 500 nM.

For `Cc1cc(C(=O)N2Cc3c(C(=O)NCc4ccccc4-c4ccncn4)n(-c4ccc(OC5CC5)cc4)c(=O)n3CC2C)ccc1Br` (single isomer, unassigned) [Compound 12b, 7-(4-bromo-3-methyl-benzoyl)-2-[4-(cyclopropoxy)phenyl]-6-methyl-3-oxo-N-[(2-pyrimidin-4-ylphenyl)methyl]-6,8-dihydro-5H-imidazo[1,5-a]pyrazine-1-carboxamide], the EC50 was under 50 nM.

Consider `CC1Cn2c(c(C(=O)NCc3ccccc3-c3ccncn3)n(-c3ccc(OC4CC4)cc3)c2=O)CN1C(=O)c1ccc(Br)c(C(F)(F)F)c1` (single isomer, unassigned) [Compound 13a, 7-[4-bromo-3-(trifluoromethyl)benzoyl]-2-[4-(cyclopropoxy)phenyl]-6-methyl-3-oxo-N-[(2-pyrimidin-4-ylphenyl)methyl]-6,8-dihydro-5H-imidazo[1,5-a]pyrazine-1-carboxamide], for which the EC50 under setting [1] lay within 50 to 500 nM.

For the compound `CC1Cn2c(c(C(=O)NCc3ccccc3-c3ccncn3)n(-c3ccc(OC4CC4)cc3)c2=O)CN1C(=O)c1ccc(Br)c(C(F)(F)F)c1` (single isomer, unassigned) [Compound 13b, 7-[4-bromo-3-(trifluoromethyl)benzoyl]-2-[4-(cyclopropoxy)phenyl]-6-methyl-3-oxo-N-[(2-pyrimidin-4-ylphenyl)methyl]-6,8-dihydro-5H-imidazo[1,5-a]pyrazine-1-carboxamide], the EC50 was under 50 nM.

As for `CC1Cn2c(c(C(=O)NCc3ccccc3-c3ccncn3)n(-c3ccc(OC4CC4)cc3)c2=O)CN1C(=O)c1ccc(Br)c(C(F)F)c1` (single isomer, unassigned) [Compound 16a, 7-[4-bromo-3-(difluoromethyl)benzoyl]-2-[4-(cyclopropoxy)phenyl]-6-methyl-3-oxo-N-[(2-pyrimidin-4-ylphenyl)methyl]-6,8-dihydro-5H-imidazo[1,5-a]pyrazine-1-carboxamide], the EC50 under setting [1] was in the range of 50 to 500 nM.

Regarding `CC1Cn2c(c(C(=O)NCc3ccccc3-c3ccncn3)n(-c3ccc(OC4CC4)cc3)c2=O)CN1C(=O)c1ccc(Br)c(C(F)F)c1` (single isomer, unassigned) [Compound 16b, 7-[4-bromo-3-(difluoromethyl)benzoyl]-2-[4-(cyclopropoxy)phenyl]-6-methyl-3-oxo-N-[(2-pyrimidin-4-ylphenyl)methyl]-6,8-dihydro-5H-imidazo[1,5-a]pyrazine-1-carboxamide], the EC50 was under 50 nM.

For the compound `COc1cnn(-c2ccccc2CNC(=O)c2c3n(c(=O)n2-c2ccc(OC4CC4)cc2)CC(C)N(C(=O)c2ccc(Br)c(Cl)c2)C3)c1` (single isomer, unassigned) [Compound 17a, 7-(4-bromo-3-chloro-benzoyl)-2-[4-(cyclopropoxy)phenyl]-N-[[2-(4-methoxypyrazol-1-yl)phenyl]methyl]-6-methyl-3-oxo-6,8-dihydro-5H-imidazo[1,5-a]pyrazine-1-carboxamide], the EC50 under setting [1] was in the range of 50 to 500 nM.

For `COc1cnn(-c2ccccc2CNC(=O)c2c3n(c(=O)n2-c2ccc(OC4CC4)cc2)CC(C)N(C(=O)c2ccc(Br)c(Cl)c2)C3)c1` (single isomer, unassigned) [Compound 17b, 7-(4-bromo-3-chloro-benzoyl)-2-[4-(cyclopropoxy)phenyl]-N-[[2-(4-methoxypyrazol-1-yl)phenyl]methyl]-6-methyl-3-oxo-6,8-dihydro-5H-imidazo[1,5-a]pyrazine-1-carboxamide], the EC50 is under 50 nM.

As to `CC1Cn2c(c(C(=O)NCc3ccccc3-c3cn(C)cn3)n(-c3ccc(OC4CC4)cc3)c2=O)CN1C(=O)c1ccc(Br)c(Cl)c1` (single isomer, unassigned) [Compound 18a, 7-(4-bromo-3-chloro-benzoyl)-2-[4-(cyclopropoxy)phenyl]-6-methyl-N-[[2-(1-methylimidazol-4-yl)phenyl]methyl]-3-oxo-6,8-dihydro-5H-imidazo[1,5-a]pyrazine-1-carboxamide], the EC50 under setting [1] lay in the range of 50 to 500 nM.

Take `CC1Cn2c(c(C(=O)NCc3ccccc3-c3cn(C)cn3)n(-c3ccc(OC4CC4)cc3)c2=O)CN1C(=O)c1ccc(Br)c(Cl)c1` (single isomer, unassigned) [Compound 18b, 7-(4-bromo-3-chloro-benzoyl)-2-[4-(cyclopropoxy)phenyl]-6-methyl-N-[[2-(1-methylimidazol-4-yl)phenyl]methyl]-3-oxo-6,8-dihydro-5H-imidazo[1,5-a]pyrazine-1-carboxamide]: the EC50 is under 50 nM.

Regarding `CC1Cn2c(c(C(=O)NCc3ccccc3-n3cc(N)cn3)n(-c3ccc(OC4CC4)cc3)c2=O)CN1C(=O)c1ccc(Br)c(Cl)c1` (single isomer, unassigned) [Compound 19a], the EC50 lay in the range of 500 to 5000 nM.

`CC1Cn2c(c(C(=O)NCc3ccccc3-n3cc(N)cn3)n(-c3ccc(OC4CC4)cc3)c2=O)CN1C(=O)c1ccc(Br)c(Cl)c1` (single isomer, unassigned) [Compound 19b]: the EC50 is 50 to 500 nM.

As to `C#Cc1cc(C(=O)N2Cc3c(C(=O)NCc4ccccc4-c4ccncn4)n(-c4ccc(OC5CC5)cc4)c(=O)n3CC2C)ccc1Br` (single isomer, unassigned) [Compound 20a], the EC50 is 500 to 5000 nM.

As for `C#Cc1cc(C(=O)N2Cc3c(C(=O)NCc4ccccc4-c4ccncn4)n(-c4ccc(OC5CC5)cc4)c(=O)n3CC2C)ccc1Br` (single isomer, unassigned) [Compound 20b], the EC50 lay in the range of 50 to 500 nM.

For the compound `CC1Cn2c(c(C(=O)NCc3ccccc3-c3ncccn3)n(-c3ccc(N4CCN(C)CC4)cc3)c2=O)CN1C(=O)c1ccc(Br)c(Cl)c1` (single isomer, unassigned) [Compound 21a], under setting [1], the EC50 was under 50 nM.

Regarding `CC1Cn2c(c(C(=O)NCc3ccccc3-c3ncccn3)n(-c3ccc(N4CCN(C)CC4)cc3)c2=O)CN1C(=O)c1ccc(Br)c(Cl)c1` (single isomer, unassigned) [Compound 21b], the EC50 is 50 to 500 nM.

As for `CC1Cn2c(c(C(=O)NCc3ccccc3-c3ccn(C)n3)n(-c3ccc(OC4CC4)cc3)c2=O)CN1C(=O)c1ccc(Br)c(Cl)c1` (single isomer, unassigned) [Compound 22a], under setting [1], the EC50 was in the range of 50 to 500 nM.

With `CC1Cn2c(c(C(=O)NCc3ccccc3-c3ccn(C)n3)n(-c3ccc(OC4CC4)cc3)c2=O)CN1C(=O)c1ccc(Br)c(Cl)c1` (single isomer, unassigned) [Compound 22b], the EC50 is under 50 nM.

Turning to `CC1Cn2c(c(C(=O)NCc3ccccc3-c3cccc(N)n3)n(-c3ccc(OC4CC4)cc3)c2=O)CN1C(=O)c1ccc(Br)c(Cl)c1` (single isomer, unassigned) [Compound 23a], the EC50 under setting [1] lay in the range of 50 to 500 nM.

For `CC1Cn2c(c(C(=O)NCc3ccccc3-c3cccc(N)n3)n(-c3ccc(OC4CC4)cc3)c2=O)CN1C(=O)c1ccc(Br)c(Cl)c1` (single isomer, unassigned) [Compound 23b], the EC50 is under 50 nM.

Consider `CC1Cn2c(c(C(=O)NCc3c(F)cccc3-n3cccn3)n(-c3ccc(OC4CC4)cc3)c2=O)CN1C(=O)c1ccc(Br)c(Cl)c1` (single isomer, unassigned) [Compound 24a], for which the EC50 under setting [1] was 50 to 500 nM.

With `CC1Cn2c(c(C(=O)NCc3c(F)cccc3-n3cccn3)n(-c3ccc(OC4CC4)cc3)c2=O)CN1C(=O)c1ccc(Br)c(Cl)c1` (single isomer, unassigned) [Compound 24b], the EC50 is under 50 nM.

`CC1Cn2c(c(C(=O)NCc3c(F)cccc3-n3cccn3)n(-c3ccc(OC4CC4)cc3)c2=O)CN1C(=O)c1ccc(Br)c(C(F)(F)F)c1` (single isomer, unassigned) [Compound 25a]: the EC50 under setting [1] lay in the range of 50 to 500 nM.

Consider `CC1Cn2c(c(C(=O)NCc3c(F)cccc3-n3cccn3)n(-c3ccc(OC4CC4)cc3)c2=O)CN1C(=O)c1ccc(Br)c(C(F)(F)F)c1` (single isomer, unassigned) [Compound 25b], for which the EC50 was under 50 nM.

Regarding `CNc1ccnc(-c2ccccc2CNC(=O)c2c3n(c(=O)n2-c2ccc(OC4CC4)cc2)CC(C)N(C(=O)c2ccc(Br)c(Cl)c2)C3)n1` (single isomer, unassigned) [Compound 26a], the EC50 under setting [1] was under 50 nM.

Regarding `CC1Cn2c(c(C(=O)NCc3ccccc3-c3cccc(N)n3)n(-c3ccc(OC4CC4)cc3)c2=O)CN1C(=O)c1ccc(Br)c(C(F)(F)F)c1` (single isomer, unassigned) [Compound 27a], the EC50 under setting [1] is under 50 nM.

For the compound `CC1Cn2c(c(C(=O)NCc3ccccc3-c3cccc(N)n3)n(-c3ccc(OC4CC4)cc3)c2=O)CN1C(=O)c1ccc(Br)c(C(F)(F)F)c1` (single isomer, unassigned) [Compound 27b], the EC50 is under 50 nM.

One may read the EC50 as the midpoint of the concentration-response curve.
